Experimental data published in patent US6090945A, “Tetrahydro-beta-carbolines” (Eli Lilly and Company, priority 1998, dated 2000).
Structures can show the parent of a compound that is named as a salt. Where two headings read alike, the source gives them in different places.

Key:
5-HT2 receptor = 5-HT2 receptor (Rattus norvegicus, UniProt P14842); assay: 5-HT2 radioligand binding assay ([3H]ketanserin displacement); set-up: species or system rat (Sprague-Dawley cerebral cortex)
5-HT1c receptor [1] = biological target: T1, 5-HT1c receptor (Bos taurus, UniProt A0AAA9SBU1); assay: 5-HT1c radioligand binding assay ([3H]mesulergine displacement); details: read-out: 5HT1C IC50 (binding displacement); choroid plexus; tritiated mesulergine 2.0 nM; 37° C., 15 minutes
T1 sequence (A0AAA9SBU1 33-457): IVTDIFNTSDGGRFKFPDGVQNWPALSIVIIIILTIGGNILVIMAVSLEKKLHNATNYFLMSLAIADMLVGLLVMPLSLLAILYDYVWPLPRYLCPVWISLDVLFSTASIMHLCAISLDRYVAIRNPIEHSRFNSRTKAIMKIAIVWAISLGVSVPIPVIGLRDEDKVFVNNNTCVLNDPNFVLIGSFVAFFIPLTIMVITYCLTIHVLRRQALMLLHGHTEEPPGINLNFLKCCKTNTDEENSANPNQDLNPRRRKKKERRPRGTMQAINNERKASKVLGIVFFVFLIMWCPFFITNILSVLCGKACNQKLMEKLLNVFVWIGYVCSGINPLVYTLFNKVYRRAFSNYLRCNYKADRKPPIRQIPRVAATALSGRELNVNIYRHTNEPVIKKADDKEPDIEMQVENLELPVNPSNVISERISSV
Method: I. Assay for 5-HT1c Affinity
(§1) Beef brain was removed immediately after slaughter, and choroid plexus were dissected over ice. […] Tissues were homogenized in 9 volumes of 0.32 mol/L sucrose and centrifuged at 1,000×g for 10 minutes. The supernatant was centrifuged at 17,000×g for 20 minutes. The pellet was suspended in 100 volumes of 50 mM Tris-HCl (pH7.4), incubated at 37° C. for 10 minutes and centrifuged at 50,000×g for 10 minutes, and the process was repeated three times. The final pellets were frozen at -70° C. and used within 2 weeks. Pellets were rehydrated with physiological buffer prior to use.
(§2) The reactions were terminated by rapid filtration, (Brandel Cell Harvestor), through Whatman GF/B glass filters that had been presoaked in Tris buffer pH 7.4. The filters were then washed 2 times with 5 ml of ice cold Tris buffer pH 7.4. Washed filters were placed in scintillation vials and 10 ml RedySolv, (Brandel), was added and samples were counted in a Searle D-300 beta counter. Means and standard error statistics were calculated for triplicate experimental determinations in certain cases. Mean values were obtained from three or more separate determinations. The incubation time for the reaction mixture was 15 minutes at 37° C.

5-HT1c receptor [2] = assay: as above; details: versus 5-HT2, as shown by Table II
Method: I. Assay for 5-HT1c Affinity
as §1, §2

[3] = rat cerebral cortex, tritiated ketanserin 1 nM, 37° C., read-out: 5HT2 IC50 (binding displacement)

5-HT2 receptor, sequence (P14842 whole entry): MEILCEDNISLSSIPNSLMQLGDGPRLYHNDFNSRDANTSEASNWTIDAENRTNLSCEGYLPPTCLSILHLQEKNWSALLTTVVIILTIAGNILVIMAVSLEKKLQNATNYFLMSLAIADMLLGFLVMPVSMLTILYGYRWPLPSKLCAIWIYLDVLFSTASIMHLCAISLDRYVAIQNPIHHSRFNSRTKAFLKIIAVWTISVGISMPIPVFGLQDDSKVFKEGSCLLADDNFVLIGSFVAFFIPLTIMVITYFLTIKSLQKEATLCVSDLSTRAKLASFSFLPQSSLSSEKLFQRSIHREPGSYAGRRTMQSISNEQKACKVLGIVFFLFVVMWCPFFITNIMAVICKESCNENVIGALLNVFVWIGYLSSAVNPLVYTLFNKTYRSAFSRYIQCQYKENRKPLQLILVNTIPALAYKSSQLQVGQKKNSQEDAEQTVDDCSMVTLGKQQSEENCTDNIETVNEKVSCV

IC50 (5-HT2 receptor; [3]) [nM] | IC50 (5-HT1c receptor [1]) [nM] | Compound | 5-HT1c selectivity (low IC50 in 5-HT1c assay, higher IC50 in 5-HT2 assay) (5-HT1c receptor [2]) | IC50 (5-HT2 receptor) [nM]
141 | 18 | COc1ccc(CC2NCCc3c2[nH]c2ccc(C)c(F)c32)cc1OC (stereo not shown) [Example 9, 5-fluoro-6-methyl-1-[(3,4-dimethoxyphenyl)-methyl]-1,2,3,4-tetrahydro-9H-pyrido[3,4-b]indole] |  | 
385 | 107 | CCCOc1ccc(CC2NCCc3c2[nH]c2ccc(C)cc32)cc1OC (stereo not shown) [Example 31, 6-methyl-1-[(3-methoxy-4-propoxyphenyl)-methyl]-1,2,3,4-tetrahydro-9H-pyrido[3,4-b]indole] |  | 
> 100 | 34 | COc1ccc(CC2NCCc3c2[nH]c2c(C)cc(C)cc32)cc1OC (stereo not shown) [Example 14, 6,8-dimethyl-1,2,3,4-tetrahydro-1-[(3,4-dimethoxyphenyl)methyl]-9H-pyrido[3,4b]indole hydrochloride] |  | 
 | 404 | COc1cc(CC2NCCc3c2[nH]c2ccc(C)cc32)cc([N+](=O)[O-])c1OC (stereo not shown) [Example 28, 6-methyl-1-[(3,4-dimethoxy-5-nitrophenyl)-methyl]-1,2,3,4-tetrahydro-9H-pyrido[3,4-b]indole hydrochloride] |  | 1000
 | 365 | COc1ccc(CC2NCCc3c2[nH]c2ccc(C4CCCCC4)cc32)cc1OC (stereo not shown) [Example 11, 6-cyclohexyl-1-[(3,4-dimethoxyphenyl)-methyl]-1,2,3,4-tetrahydro-9H-pyrido[3,4-b]indole hydrochloride] |  | > 1000
> 100 | 21 | COc1ccc(CC2NCCc3c2[nH]c2c(C)c(C)ccc32)cc1OC (stereo not shown) [Example 19, 7,8-dimethyl-1,2,3,4-tetrahydro-1-[(3,4-dimethoxyphenyl)methyl]-9H-pyrido[3,4b]indole hydrochloride] |  | 
> 100 | 22 | COc1ccc(CC2NCCc3c2[nH]c2ccc(C(C)(C)C)cc32)cc1OC (stereo not shown) [Example 8, 6-(1,1-dimethylethyl)-1-[(3,4-dimethoxyphenyl)methyl]1,2,3,4-tetrahydro-1-9H-pyrido-[3,4b]indole hydrochloride] |  | 
 | 498 | Cc1ccc2[nH]c3c(c2c1)CCNC3CC1CCCCC1 (stereo not shown) [Example 39, 6-methyl-1-(cyclohexylmethyl)-1,2,3,4-tetrahydro-9H-pyrido[3,4-b]indole hydrochloride] |  | 620
> 100 | 15 | COc1ccc(CC2NCCc3c2[nH]c2c(C)ccc(C)c32)cc1OC (stereo not shown) [Example 12, 5,8-dimethyl-1,2,3,4-tetrahydro-1-[(3,4-dimethoxyphenyl)methyl]-9H-pyrido[3,4b]indole hydrochloride] |  | 
211 | 86 | CCc1ccc2[nH]c3c(c2c1)CCN[C@H]3[C@H](C)c1ccc(OC)c(OC)c1 (relative stereo) [Example 42, (±) 6-ethyl-1-[(3,4-dimethoxyphenyl)-1-ethyl]-1,2,3,4-tetrahydro-9H-pyrido[3,4-b]indole (Z)-2-butenedioate] |  | 
 | 224 | COc1cc(CC2NCCc3c2[nH]c2ccc(C)cc32)cc(N)c1OC (stereo not shown) [Example 30, 6-methyl-1-[(3,4-dimethoxy-5-amino-phenyl)-methyl]-1,2,3,4-tetrahydro-9H-pyrido[3,4-b]indole dihydrochloride] |  | 792
287 | 119 | COc1ccc(CC2NCCc3c2[nH]c2ccc(Br)cc32)cc1OC (stereo not shown) [Example 18, 6-bromo-1,2,3,4-tetrahydro-1-[(3,4-dimethoxyphenyl)methyl]-9H-pyrido[3,4b]indole] |  | 
 | 452 | COc1ccc(CC2c3[nH]c4ccc(C(C)C)cc4c3CCN2C)cc1OC (stereo not shown) [Example 45, 2-methyl-6-(1-methylethyl)-1,2,3,4-tetrahydro-1-[(3,4-dimethoxyphenyl)methyl]-9H-pyrido-[3,4b]indole maleate] |  | 
255 | 237 | COc1ccc(CC2NCCc3c2[nH]c2c(OC)cccc32)cc1OC (stereo not shown) [Example 5, 8-methoxy-1-[(3,4-dimethoxyphenyl)methyl]-1,2,3,4-tetrahydro-9H-pyrido[3,4-]indole] |  | 
1010 | 257 | COc1cc(CC2NCCc3c2[nH]c2ccc(C)cc32)cc(I)c1OC (stereo not shown) [Example 29, 6-methyl-1-[(3-iodo-4,5-dimethoxy-phenyl)-methyl]-1,2,3,4-tetrahydro-9H-pyrido[3,4-b]indole] |  | 
286 | 73 | CCc1ccc2[nH]c3c(c2c1)CCNC3Cc1ccc(OC)c(OC)c1 (stereo not shown) [Example 17, 6-ethyl-1,2,3,4-tetrahydro-1-[(3,4-dimethoxyphenyl)methyl]-9H-pyrido[3,4b]indole] |  | 
310 | 213 | COc1ccc(CC2NCCc3c2[nH]c2c(C)cccc32)cc1OC (stereo not shown) [Example 1, 8-methyl-1-[(3,4-dimethoxyphenyl)methyl]-1,2,3,4-tetrahydro-9H-pyrido[3,4-b]indole] |  | 
 | 386 | COc1ccc(CC2c3[nH]c4ccc(C)cc4c3CCN2C)c(Cl)c1OC (stereo not shown) [Example 44, 2,6-dimethyl-1-[(2-chloro-3,4-dimethoxyphenyl)methyl]-1,2,3,4-tetrahydro-9H-pyrido[3,4-b]indole hydrochloride] |  | 

Compound | IC50 (5-HT2 receptor; [3]) [nM] | IC50 (5-HT1c receptor [1]) [nM] | 5-HT1c selectivity (low IC50 in 5-HT1c assay, higher IC50 in 5-HT2 assay) (5-HT1c receptor [2]) | IC50 (5-HT2 receptor) [nM]
COc1ccc(CC2NCCc3c2[nH]c2c(Br)cc(Br)cc32)cc1OC (stereo not shown) [Example 3, 6,8-dibromo-1-[(3,4-dimethoxyphenyl)methyl]-1,2,3,4-tetrahydro-9H-pyrido[3,4-b]indole] | 900 | 29 | particularly 5-HT1c selective | 
COc1cc(OC)c(OC)cc1CC1NCCc2c1[nH]c1ccc(C)cc21 (stereo not shown) [Example 26, 6-methyl-1-[(2,4,5-trimethoxyphenyl)-methyl]-1,2,3,4-tetrahydro-9H-pyrido[3,4-b]indole hydrochloride] |  | 53 |  | 
COc1ccc(CC2NCCc3c2[nH]c2ccc(C)cc32)cc1F (stereo not shown) [Example 34, 6-methyl-1-[(3-fluoro-4-methoxyphenyl)-methyl]-1,2,3,4-tetrahydro-9H-pyrido[3,4-b]indole hydrochloride] |  | 95 |  | 250
COc1ccc(CC2NCCc3c2[nH]c2c(Br)cc(C)cc32)cc1OC.Cl (stereo not shown) [Example 4, 6-methyl-8-bromo-1-[(3,4-dimethoxyphenyl)-methyl]-1,2,3,4-tetrahydro-9H-pyrido[3,4-b]indole hydrochloride] |  | 20 | particularly 5-HT1c selective | 132
COc1ccc(CC2NCCc3c2[nH]c2ccc(C)cc32)c(Cl)c1OC (stereo not shown) [Example 36, 6-methyl-1-[(2-chloro-3,4-dimethoxyphenyl)-methyl]-1,2,3,4-tetrahydro-9H-pyrido[3,4-b]indole hydrochloride] |  | 57 |  | 100
Cc1ccc2[nH]c3c(c2c1)CCNC3Cc1ccc(C)c(C)c1 (stereo not shown) [Example 35, 6-methyl-1-[(3,4-dimethylphenyl)methyl]-1,2,3,4-tetrahydro-9H-pyrido[3,4-b]indole hydrochloride] |  | 61 |  | > 100
COc1c(O)ccc(CC2NCCc3c2[nH]c2ccc(C)cc32)c1Cl (stereo not shown) [Example 37, 6-methyl-1-[(2-chloro-3-methoxy-4-hydroxyphenyl)methyl]-1,2,3,4-tetrahydro-9H-pyrido[3,4-b]-indole hydrochloride] |  | 29 |  | 100
COc1ccc(CC2NCCc3c2[nH]c2ccc(C)c(F)c32)c(Cl)c1OC (stereo not shown) [Example 38, 5-fluoro-6-methyl-1-[(2-chloro-3,4-dimethoxyphenyl)methyl]-1,2,3,4-tetrahydro-9H-pyrido[3,4-b]indole hydrochloride] |  | 11 |  | > 100
COc1ccc(OC)c(CC2NCCc3c2[nH]c2ccc(C)cc32)c1 (stereo not shown) [Example 25, 6-methyl-1-[(2,5-dimethoxyphenyl)methyl]-1,2,3,4-tetrahydro-9H-pyrido[3,4-b]indole hydrochloride] |  | 79 |  | 
COc1ccccc1CC1NCCc2c1[nH]c1ccc(C)cc21 (stereo not shown) [Example 23, 6-methyl-1-[(2-methoxyphenyl)methyl]-1,2,3,4-tetrahydro-9H-pyrido[3,4-b]indole hydrochloride] |  | 57 |  | 
COc1ccc(CC2NCCc3c2[nH]c2ccc(C)cc32)cc1OC (stereo not shown) [Example 20, 6-methyl-1,2,3,4-tetrahydro-1-[(3,4-dimethoxyphenyl)methyl]-9H-pyrido[3,4b]indole hydrochloride] | 129 | 100 |  | 
COc1ccc(CC2NCCc3c2[nH]c2ccc(C)cc32)c(OC)c1 (stereo not shown) [Example 24, 6-methyl-1-[(2,4-dimethoxyphenyl)methyl]-1,2,3,4-tetrahydro-9H-pyrido[3,4-b]indole hydrochloride] |  | 17 |  | 74
COc1cc(CC2NCCc3c2[nH]c2ccc(C)cc32)cc(OC)c1OC (stereo not shown) [Example 21, 6-methyl-1-[(3,4,5-trimethoxyphenyl)-methyl]-1,2,3,4-tetrahydro-9H-pyrido[3,4-b]indole hydrochloride] |  | 83 |  | 1080
COc1ccc(CC2NCCc3c2[nH]c2c(Br)cccc32)cc1OC (stereo not shown) [Example 2, 8-bromo-1-[(3,4-dimethoxyphenyl)methyl]-1,2,3,4-tetrahydro-9H-pyrido[3,4-b]indole hydrochloride] |  | 34 |  | 67
